Assay results from PubChem BioAssay (NCI).
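Each compound was tested at five concentrations against cells in 96-well plates for 48 hours. TGI denotes the concentration required for complete inhibition of growth.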

Key:
Assay in all cases: DTP human tumour cell line panel, 48 h
HCT-15 colon = system: HCT-15 colon
SK-OV-3 ovarian = system: SK-OV-3 ovarian
HT29 colon = system: HT29 colon
EKVX NSCLC = system: EKVX NSCLC
MDA-N = system: MDA-N
PC-3 prostate = system: PC-3 prostate
MCF7 breast = system: MCF7 breast
LOX IMVI melanoma = system: LOX IMVI melanoma
MDA-MB-435 = system: MDA-MB-435
HOP-62 NSCLC = system: HOP-62 NSCLC
SNB-75 CNS = system: SNB-75 CNS

| SMILES | TGI (HCT-15 colon) [µM] | TGI (SK-OV-3 ovarian) [µM] | TGI (HT29 colon) [µM] | TGI (EKVX NSCLC) [µM] | TGI (MDA-N) [µM] | TGI (PC-3 prostate) [µM] | TGI (MCF7 breast) [µM] | TGI (LOX IMVI melanoma) [µM] | TGI (MDA-MB-435) [µM] | TGI (HOP-62 NSCLC) [µM] | TGI (SNB-75 CNS) [µM] |
| --- | --- | --- | --- | --- | --- | --- | --- | --- | --- | --- | --- |
| COc1ccc(/C=C2\CCC(C)C3=C2N=c2s/c(=C/c4cccc(Br)c4)c(=O)n2C3c2ccc(OC)c(OC)c2)cc1OC (centres undefined) | > 100 | > 100 | > 100 | > 100 | > 100 | > 100 | > 100 | > 100 | > 100 | > 100 | – |
| CC1(C)CCC[C@]2(C)[C@H]3[C@H](C#N)c4cc(O)c(O)cc4O[C@@]3(C)CC[C@@H]12 | > 10 | > 10 | – | > 10 | > 10 | > 10 | > 10 | > 10 | – | > 10 | – |
| CC(=O)O[C@H]1[C@H](OC(=O)CC(C)(O)CC(=O)O)C[C@]2(C)C3=C(CCC2C1(C)C)[C@]1(C)CC[C@H]([C@H]2CC[C@H](C(C)(C)O)OC2O)[C@@]1(C)[C@@H](O)C3 (some centres undefined) | 34.9 | 30.6 | 30.2 | 38.9 | 34.3 | 33.2 | 45.8 | 35.9 | 35.1 | 32.7 | – |
| CC(=O)O[C@H]1C(=O)[C@@]2(C)C(C(OC(=O)c3ccccc3)C3[C@@H](O)C(OC(=O)[C@@H](O)[C@H](NC(=O)c4ccccc4)c4ccc(C(F)(F)F)cc4)C(C)=C1C3(C)C)[C@]1(OC(C)=O)CO[C@@H]1C[C@@H]2O (some centres undefined) | > 25 | > 25 | > 25 | > 25 | – | – | – | > 25 | – | > 25 | > 25 |
| COc1ccc(SCc2cc(OCc3ccccc3)c(OCc3ccccc3)c(OCc3ccccc3)c2)cc1 | 3.47 | 3.18 | – | 4.37 | 3.29 | 3.37 | – | 2.91 | 3.33 | – | 3 |
| C=C1C2C[C@@H]3O[C@H]4C[C@H]5O[C@@]6(C[C@@H]7O[C@]8(C[C@H](C)[C@@H]9O[C@@H]%10CC(CO)O[C@@H]%10C[C@@H]9O8)C[C@H](C)[C@@H]7O6)C[C@H]5O[C@H]4[C@H](C)[C@H]3OC(=O)C[C@H]3CC[C@@H]4OC5[C@H]6O[C@]7(CC[C@H]8CC(=C)[C@H](CC[C@@H](C[C@H]1C)O2)O8)CC6O[C@@H]5[C@@H](O7)[C@H]4O3 (some centres undefined) | – | > 1 | – | > 1 | – | > 1 | – | > 0.433 | < 0.0001 | > 1 | > 1 |
| C=CCc1cccc2cc(C(=O)Nc3ccccn3)c(=N)oc12 | > 100 | > 100 | > 100 | – | – | > 100 | > 100 | > 100 | > 100 | > 100 | > 100 |
| O=C(Nc1nc(C23CC4CC(CC(C4)C2)C3)cs1)c1cc2ccccc2oc1=O | > 100 | – | > 100 | > 100 | > 100 | > 100 | > 100 | > 100 | > 100 | > 100 | > 100 |
| CCOC(=O)c1ccc(N=c2sc3ccccc3nc2Nc2ccc(C(=O)OCC)cc2)cc1 | > 100 | > 100 | > 100 | > 100 | > 100 | > 100 | – | > 100 | > 100 | > 100 | > 100 |
| Cc1cn(CC2=NCC(C)N2)c(=O)[nH]c1=O (centres undefined) | > 100 | > 100 | > 100 | > 100 | > 100 | > 100 | > 100 | > 100 | – | > 100 | > 100 |
